Test results as given in the NIST ThermoML archive (doi:10.1021/acs.jced.6b00334).
± gives the expanded uncertainty stated by the source.

Key:
[1] = Solid-liquid equilibrium temperature; details: 101 kPa; Crystal; DTA
[2] = Molar enthalpy of transition or fusion; details: Crystal; DSC

CCc1ccc2c(c1)C(=O)c1ccccc1C2=O [2-ethyl-9,10-anthracenedione]
Solid-liquid equilibrium temperature [1]: 384.15 ± 0.25 K
Molar enthalpy of transition or fusion [2]: 4.49 ± 1.2 kcal/mol
